According to patent US9000188B2, “Monocyclic cyanoenones and methods of use thereof” (Trustees of Dartmouth College, priority 2008, dated 2015):
pIC50: −log10 of the molar value. Entries after “also recorded” stand apart in the source; their conditions may differ.

Legend:
[1] = test system: IFNγ-induced NO production in RAW cells; test: iNOS assay: inhibition of NO production in RAW cells stimulated by interferon-γ; assay type: cell-based; details: for pIC50: Suppression of IFNγ-induced NO production, 24 h, Griess reaction, average of two experiments, read-out: RAW (10 ng/ml IFNγ) IC50
Description: (§1) Compounds of the present disclosure have been tested for inhibition of nitric oxide (NO) production in RAW cells stimulated by interferon-γ (iNOS assay) and induction of NAD(P)H-quinone oxidoreductase in Hepa1c1c7 cells (NQO1 assay), both assay systems we have previously employed. At the same time, CDDO and TBE-31 were tested as a positive controls in the same assays. […] The potency in the iNOS assay is more than CDDO (pentacycle), whose methyl ester is currently evaluated in Phase II clinical trials as an anti-inflammatory drug. Also the potency correlates to their reactivity as Michael acceptors based on the above-summarized UV studies.
For the iNOS assay, RAW cells were treated with various concentrations of compounds and interferon-γ (10 ng/mL) for 24 h. Supernatants were analyzed for nitric oxide (NO) by the Griess reaction. IC50 values are an average of two separate experiments.

[2] = test system: NAD(P)H-quinone oxidoreductase in Hepa1c1c7 cells; test: NQO1 assay: induction of NAD(P)H-quinone oxidoreductase in Hepa1c1c7 cells; assay type: cell-based
Description: Novel monocyclic cyano enones (MCEs) were synthesized and their Michael reactivity and biological activity were tested in order to identify useful fragments for drug discovery. […] MCE-1 gives reversible and selective Michael adducts with thiol nucleophiles.
as §1

[3] = molecular target: Keap1 (Mus musculus, UniProt Q9Z2X8); test: UV studies with Keap1; details: thiol-rich protein
Text: Keap1 is an electrophile sensor in the cellular Keap1-Nrf2-antioxidant response elements (ARE) phase II response pathway that regulates the transcription of genes for cytoprotective enzymes such as HO-1 and NQO1.

[4] = test system: IFNγ-induced NO production in RAW cells; details: RAW cells stimulated by interferon-γ; cited from earlier work
[5] = test system: aflatoxin-induced liver cancer; details: rats, orally active; cited from earlier work

Chain of Keap1 (Q9Z2X8 whole entry): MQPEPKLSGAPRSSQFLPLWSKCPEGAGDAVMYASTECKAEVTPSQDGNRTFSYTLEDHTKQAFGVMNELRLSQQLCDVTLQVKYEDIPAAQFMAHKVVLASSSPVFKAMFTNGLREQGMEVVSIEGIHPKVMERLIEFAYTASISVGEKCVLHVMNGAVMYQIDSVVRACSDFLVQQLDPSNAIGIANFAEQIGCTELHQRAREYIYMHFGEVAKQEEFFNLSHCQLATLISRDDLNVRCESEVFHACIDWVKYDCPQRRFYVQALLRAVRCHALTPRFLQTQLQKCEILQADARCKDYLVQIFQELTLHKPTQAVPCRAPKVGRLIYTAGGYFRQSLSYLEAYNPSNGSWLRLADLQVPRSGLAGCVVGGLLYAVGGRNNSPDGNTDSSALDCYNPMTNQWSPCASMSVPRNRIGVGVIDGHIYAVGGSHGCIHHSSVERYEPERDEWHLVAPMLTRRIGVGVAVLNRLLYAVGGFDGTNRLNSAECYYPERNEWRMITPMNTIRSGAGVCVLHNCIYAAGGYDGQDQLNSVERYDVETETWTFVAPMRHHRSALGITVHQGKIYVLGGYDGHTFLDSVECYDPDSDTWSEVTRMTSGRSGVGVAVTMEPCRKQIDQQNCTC

Row | SMILES | pIC50 [1] | potency in the NQO1 assay (in words) [2] | other results
1 | C=CC1(C)C=CC(=O)C(C#N)=C1 (stereo not shown) [MCE-15, 3-methyl-6-oxo-3-vinyl-cyclohexa-1,4-dienecarbonitrile] | 6.52 |  | 
2 | C#CC1(C)C=CC(=O)C(C#N)=C1 (stereo not shown) [MCE-1, 3-Ethynyl-3-methyl-6-oxocyclohexa-1,4-dienecarbonitrile] | 8.10 | highly potent; also recorded: highest potency amongst MCEs | potency in the iNOS assay (in words) ([1]; RAW cells stimulated by interferon-γ): highly potent; also recorded: higher than CDDO; also recorded: highest potency amongst MCEs; reactivity with Keap1 (UV) [3]: highest reactivity
3 | CC1(C)CC[C@]2(C(=O)O)CC[C@]3(C)[C@H](C(=O)C=C4[C@@]5(C)C=C(C#N)C(=O)C(C)(C)[C@@H]5CC[C@]43C)[C@@H]2C1 [CDDO, 2-cyano-3,12-diooxooleana-1,9(11)-dien-28-oic acid, reference compound] | 7.70 |  | 
4 | C#CC12C=C(C#N)C(=O)C=C1[C@@]1(C)C=C(C#N)C(=O)C(C)(C)[C@@H]1CC2 (stereo partly shown) [TBE-31] | 9.00 |  | inhibition of NO production (iNOS assay), literature [4]: low nanomolecular concentrations; potency against aflatoxin-induced liver cancer [5]: exceptionally potent
5 | CC1(C)C=CC(=O)C(C#N)=C1 [MCE-2, reference compound] | 6.42 |  | 
6 | C#C[C@]12C=C(C#N)C(=O)C=C1[C@@]1(C)CCC(=O)C(C)(C)[C@@H]1CC2 [MCE-7] | < 6.52 | less potent than MCE-1 | activity in the iNOS assay ([1]; at a concentration of 300 nM): inactive
